Turning to `CC[C@@]1(O)C(=O)OCc2c1cc1n(c2=O)Cc2c-1nc1ccc(C)c3c1c2C(NC(C)=O)CN3` (stereo partly shown), the melting point (in general, the temperature, or range, at which the solid turns liquid) lay within 225 to 235 °C. For the molecule `CC[C@@]1(O)C(=O)OCc2c1cc1n(c2=O)Cc2c-1nc1cccc3c1c2CC(S(=O)(=O)O)C3` (stereo partly shown), the melting point is 190 to 200 °C (dec.). `CC[C@@]1(O)C(=O)OCc2c1cc1n(c2=O)Cc2c-1nc1ccc(C)c3c1c2CCN3CCNC(C)=O`: the melting point was 155 to 165 °C (dec.). In the case of `CC[C@@]1(O)C(=O)OCc2c1cc1n(c2=O)Cc2c-1nc1ccc(C)c3c1c2CCN3CCN.Cl`, the melting point is 210 to 230 °C (dec.). In the case of `CC[C@@]1(O)C(=O)OCc2c1cc1n(c2=O)Cc2c-1nc1cccc3c1c2C(NC(C)=O)CCC3` (stereo partly shown), the melting point was 203 to 206 °C (dec.). As for `CC[C@@]1(O)C(=O)OCc2c1cc1n(c2=O)Cc2c-1nc1ccc(C)c3c1c2CCC3N1C(=O)c2ccccc2C1=O` (stereo partly shown), the melting point is 285 to 290 °C (dec.). In turn, `CC[C@@]1(O)C(=O)OCc2c1cc1n(c2=O)Cc2c-1nc1ccc(Cl)c3c1c2C(NC(C)=O)CN3` (stereo partly shown) displayed a melting point of 250 to 270 °C.
